Where two headings read alike, the source gives them in different places.
Experiments:
[1] = system: SARS-CoV-2; type: cell-based; conditions: 48 h post-infection
[2] = system: 3_SL1+2 RNA; type: binding
[3] = system: SCoV2 RNA elements; experiment: ligand-based 1H NMR (1D, CPMG, wLOGSY), six RNA elements compared; type: binding, SARS-CoV-2; conditions: CSP, LB, CPMG and wLOGSY perturbations; 300 µM compound
Source text: We first used ligand-based ^1H NMR experiments to analyze the interaction of the selected compounds with each of the six RNA elements specified above, including one-dimensional, Carr–Purcell–Meiboom–Gill (CPMG) and waterLOGSY (wLOGSY) experiments. These assays detect changes in the ^1H signals of the ligand upon RNA association (Figure 4A), and have been successfully used to evaluate small-molecule binding to RNA motifs, including elements of the SCoV2 genome.
Each ligand (at a concentration of 300 μM) was mixed with a smaller quantity of RNA in an aqueous solution containing 25 mM potassium phosphate (pH 6.2), 150 mM KCl, 3 mM MgCl2, and 10% D2O. RNA–ligand molar ratios of 1:50 and 1:100 were explored (with 6 and 3 μM RNA, respectively). […] The water signal was suppressed from one-dimensional experiments with a watergate sequence. The CPMG experiments were acquired with 100, 200, 300, and 400 ms relaxation delays before acquisition, and water suppression was achieved by presaturation. wLOGSY experiments employed a selective Gaussian 180° pulse at the water frequency and an NOE mixing time of 1.5 s and suppressed the water signal by excitation sculpting. All spectra were acquired in the absence and presence of RNA.
All ligand signals were individually analyzed. For clomiphene citrate, the signals corresponding to cis and trans forms were identified by comparing the spectrum of clomiphene citrate with those of the individual stereoisomers. In CPMG experiments, the binding of the compounds to the different RNA sequences was quantified as 100 minus the percentage of ligand signal area in the +RNA CPMG spectrum relative to the corresponding signal area in the -RNA CPMG spectrum. In wLOGSY experiments, binding was quantified with the LOGSY factor, or % of ligand signal in the difference spectrum between the +RNA and –RNA wLOGSY spectra, relative to the corresponding signal in the one-dimensional -RNA reference spectrum. In one-dimensional experiments, line broadening (LB) was quantified as explained for CPMG spectra.

[4] = system: subdomain IIa of the internal ribosome entry site (IRES) RNA of HCV; parameters: method as in earlier work; conditions: ref 6 (Table S1 list: Martín-Villamil et al. 2022); cited from earlier work
[5] = molecular target: 3_S2m-23fl RNA hairpin; experiment: fluorescence intensity binding assay; parameters: species or system SARS-CoV-2
Description: The 3_S2m-23fl RNA oligonucleotide used in fluorescence intensity experiments was purchased HPLC-purified from Integrated DNA Technologies (Coralville, IA, USA). […] The mixture of tRNAs from E. coli MRE 600 (identified as tRNA^mix) used to evaluate specificity was obtained from Roche (Basel, Switzerland).
3_S2m-23fl (at 100 nM concentration) was snap-cooled in a buffer containing sodium phosphate pH 6.6, 0 or 150 mM NaCl, and 0.1 mM EDTA and incubated with increasing amounts of compound. The specificity of the RNA–ligand interactions was evaluated by repeating the assays in the presence of a 100-fold molar excess (10 μM) of tRNA^mix. The equilibrium dissociation constants Kd were obtained by fitting the dose–response curves to a two-state binding model [41] with Prism software (GraphPad Software, San Diego, CA, USA). All fluorescence binding assays were carried out three times for each molecule and condition.

[6] = system: SCoV2 USA-WA1/2020; type: cell-based; conditions: for nucleocapsid protein expression: 293T-ACE2, MOI 2, 8-h single cycle, added at +2 h relative to infection
[7] = system: 3_S2m RNA; experiment: ligand-based 1H NMR (1D, CPMG, wLOGSY); type: binding, SARS-CoV-2
[8] = system: HIV-1; conditions: ref 3 (Table S1 list: Simba-Lahuasi et al., Unpublished results); cited from earlier work
[9] = system: Vero E6 cells; conditions: read-out: SARS-CoV-2 CC50, uninfected, MTT
[10] = system: 5_SL2+3 RNA; experiment: RNA-based 1H NMR (TOCSY) titration; type: binding, SARS-CoV-2; conditions: RNA:ligand up to 1:4
[11] = system: subdomain IIB of the rev recognition element (RRE) of the HIV-1 genomic RNA; conditions: ref 3 (Table S1 list: Simba-Lahuasi et al., Unpublished results); cited from earlier work
[12] = average of aliphatic protons, RNA:ligand 1:100 (clomiphene) or 1:50 (trim, qz2)
[13] = average of aromatic protons, RNA:ligand 1:100 (clomiphene) or 1:50 (trim, qz2)
[14] = 0 mM NaCl, pH 6.6, 25 °C, read-out: Kd

Compound: CC(C)CCN1CCC(CNc2nc3ccccc3c(=O)[nH]2)CC1 [qz2]
- viral titers in supernatants (TCID50) [1]: below the limit of detection
- LB [2, 12]: -2.14%
- LOGSY factor [2, 12]: 4.45%
- CPMG variation [2, 13]: 10.7%
- LB [2, 13]: 13.1%
- LOGSY factor [2, 13]: 11.5%
- CPMG variation ([2]; qz2 peak A, RNA:ligand 1:50): -13.7%
- LB ([2]; qz2 peak A, RNA:ligand 1:50): -2.06%
- LOGSY factor ([2]; qz2 peak A, RNA:ligand 1:50): 2.25%
- CPMG variation ([2]; qz2 peak C/D, RNA:ligand 1:50): -16.2%
- LB ([2]; qz2 peak C/D, RNA:ligand 1:50): -4.34%
- LOGSY factor ([2]; qz2 peak C/D, RNA:ligand 1:50): 7.61%
- CPMG variation ([2]; qz2 peak E/B, RNA:ligand 1:50): -19.5%
- LB ([2]; qz2 peak E/B, RNA:ligand 1:50): 7.16%
- LOGSY factor ([2]; qz2 peak E/B, RNA:ligand 1:50): 3.76%
- CPMG variation ([2]; qz2 peak F, RNA:ligand 1:50): -4.16%
- LB ([2]; qz2 peak F, RNA:ligand 1:50): -9.61%
- LOGSY factor ([2]; qz2 peak F, RNA:ligand 1:50): 3.95%
- CPMG variation ([2]; qz2 peak G, RNA:ligand 1:50): -11.4%
- LB ([2]; qz2 peak G, RNA:ligand 1:50): -3.71%
- LOGSY factor ([2]; qz2 peak G, RNA:ligand 1:50): 4.70%
- CPMG variation ([2]; qz2 peak I, RNA:ligand 1:50): 11.7%
- LB ([2]; qz2 peak I, RNA:ligand 1:50): 11.8%
- LOGSY factor ([2]; qz2 peak I, RNA:ligand 1:50): 15.1%
- CPMG variation ([2]; qz2 peak J, RNA:ligand 1:50): 11.1%
- LB ([2]; qz2 peak J, RNA:ligand 1:50): 21.8%
- LOGSY factor ([2]; qz2 peak J, RNA:ligand 1:50): 16.0%
- CPMG variation ([2]; qz2 peak K, RNA:ligand 1:50): 8.91%
- LB ([2]; qz2 peak K, RNA:ligand 1:50): 5.71%
- LOGSY factor ([2]; qz2 peak K, RNA:ligand 1:50): 3.38%
- RNA binding preference [3]: bound to the ORF7b element only
- Previous target RNA binding [4]: yes
- Kd [5, 14]: 26.7 µM
- nucleocapsid protein expression [6]: strongly inhibited
- time of addition with maximum inhibition ([6]; 293T-ACE2, MOI 2, relative to infection): -2 h
- CPMG variation [7, 12]: -0.71%
- LB [7, 12]: 1.30%
- LOGSY factor [7, 12]: 3.15%
- CPMG variation [7, 13]: 10.3%
- LB [7, 13]: 6.50%
- LOGSY factor [7, 13]: 11.1%
- CPMG variation ([7]; qz2 peak A, RNA:ligand 1:50): 6.71%
- LB ([7]; qz2 peak A, RNA:ligand 1:50): 4.87%
- LOGSY factor ([7]; qz2 peak A, RNA:ligand 1:50): 1.60%
- CPMG variation ([7]; qz2 peak C/D, RNA:ligand 1:50): -1.93%
- LB ([7]; qz2 peak C/D, RNA:ligand 1:50): 2.61%
- LOGSY factor ([7]; qz2 peak C/D, RNA:ligand 1:50): 3.32%
- CPMG variation ([7]; qz2 peak E/B, RNA:ligand 1:50): -10.6%
- LB ([7]; qz2 peak E/B, RNA:ligand 1:50): 11.4%
- LOGSY factor ([7]; qz2 peak E/B, RNA:ligand 1:50): 6.11%
- CPMG variation ([7]; qz2 peak F, RNA:ligand 1:50): 6.38%
- LB ([7]; qz2 peak F, RNA:ligand 1:50): -12.7%
- LOGSY factor ([7]; qz2 peak F, RNA:ligand 1:50): 2.81%
- CPMG variation ([7]; qz2 peak G, RNA:ligand 1:50): -1.76%
- LB ([7]; qz2 peak G, RNA:ligand 1:50): 4.32%
- LOGSY factor ([7]; qz2 peak G, RNA:ligand 1:50): 1.92%
- CPMG variation ([7]; qz2 peak I, RNA:ligand 1:50): 10.3%
- LB ([7]; qz2 peak I, RNA:ligand 1:50): 11.5%
- LOGSY factor ([7]; qz2 peak I, RNA:ligand 1:50): 5.19%
- CPMG variation ([7]; qz2 peak J, RNA:ligand 1:50): 9.16%
- LB ([7]; qz2 peak J, RNA:ligand 1:50): 11.3%
- LOGSY factor ([7]; qz2 peak J, RNA:ligand 1:50): 9.42%
- CPMG variation ([7]; qz2 peak K, RNA:ligand 1:50): 11.6%
- LB ([7]; qz2 peak K, RNA:ligand 1:50): -3.23%
- LOGSY factor ([7]; qz2 peak K, RNA:ligand 1:50): 18.7%

Compound: NCCCc1cn(C(c2ccccc2)(c2ccccc2)c2ccccc2)cn1 [trim]
- viral titers in supernatants (TCID50) [1]: below the limit of detection
- Previous target virus activity [8]: yes
- CPMG variation [2, 12]: 18.3%
- LB [2, 12]: 14.0%
- LOGSY factor [2, 12]: 33.1%
- CPMG variation [2, 13]: 25.0%
- LB [2, 13]: 10.2%
- LOGSY factor [2, 13]: 87.9%
- CPMG variation ([2]; trim peak A, RNA:ligand 1:50): 18.5%
- LB ([2]; trim peak A, RNA:ligand 1:50): 11.8%
- LOGSY factor ([2]; trim peak A, RNA:ligand 1:50): 32.1%
- CPMG variation ([2]; trim peak B, RNA:ligand 1:50): 23.8%
- LB ([2]; trim peak B, RNA:ligand 1:50): 15.1%
- LOGSY factor ([2]; trim peak B, RNA:ligand 1:50): 34.2%
- CPMG variation ([2]; trim peak C, RNA:ligand 1:50): 23.6%
- LB ([2]; trim peak C, RNA:ligand 1:50): 7.46%
- LOGSY factor ([2]; trim peak C, RNA:ligand 1:50): 80.8%
- CPMG variation ([2]; trim peak D, RNA:ligand 1:50): 25.2%
- LB ([2]; trim peak D, RNA:ligand 1:50): 9.70%
- LOGSY factor ([2]; trim peak D, RNA:ligand 1:50): 92.6%
- CPMG variation ([2]; trim peak E, RNA:ligand 1:50): 26.4%
- LB ([2]; trim peak E, RNA:ligand 1:50): 14.1%
- LOGSY factor ([2]; trim peak E, RNA:ligand 1:50): 90.5%
- CC50 [9]: > 89.8 µM
- RNA binding preference [3]: bound with enhanced affinity to the 5_SL2+3 and 3_S2m molecules
- TOCSY perturbations [10]: larger variations than clomiphene or qz2
- Kd [5, 14]: 19.3 µM
- Kd ([5]; 150 mM NaCl, 100-fold molar excess of tRNA, read-out: Kd-tRNA): 8.97 µM
- Kd ([5]; 150 mM NaCl, pH 6.6, 25 °C, no tRNA, read-out: Kd): 12.5 µM
- Previous target RNA binding [11]: yes
- nucleocapsid protein expression [6]: strongly inhibited
- CPMG variation [7, 12]: 15.7%
- LB [7, 12]: 9.33%
- LOGSY factor [7, 12]: 39.4%
- CPMG variation [7, 13]: 24.0%
- LB [7, 13]: 8.82%
- LOGSY factor [7, 13]: 54.4%
- CPMG variation ([7]; trim peak A, RNA:ligand 1:50): 15.8%
- LB ([7]; trim peak A, RNA:ligand 1:50): 5.70%
- LOGSY factor ([7]; trim peak A, RNA:ligand 1:50): 45.5%
- CPMG variation ([7]; trim peak B, RNA:ligand 1:50): 22.1%
- LB ([7]; trim peak B, RNA:ligand 1:50): 11.1%
- LOGSY factor ([7]; trim peak B, RNA:ligand 1:50): 33.3%
- CPMG variation ([7]; trim peak C, RNA:ligand 1:50): 22.2%
- LB ([7]; trim peak C, RNA:ligand 1:50): 11.7%
- LOGSY factor ([7]; trim peak C, RNA:ligand 1:50): 54.5%
- CPMG variation ([7]; trim peak D, RNA:ligand 1:50): 24.2%
- LB ([7]; trim peak D, RNA:ligand 1:50): 4.64%
- LOGSY factor ([7]; trim peak D, RNA:ligand 1:50): 70.5%
- CPMG variation ([7]; trim peak E, RNA:ligand 1:50): 26.4%
- LB ([7]; trim peak E, RNA:ligand 1:50): 14.3%
- LOGSY factor ([7]; trim peak E, RNA:ligand 1:50): 38.2%

Reference: article PMC9784969, “SARS-CoV-2 Inhibitors Identified by Phenotypic Analysis of a Collection of Viral RNA-Binding Molecules” (Pharmaceuticals, 2022)
